Marks after values point to notes of the source that are not given here. Where a SMILES comes first, the peptide text is derived from it. Where no end group is shown, it is not given here. [ ]: non-standard residue; d: D form. The star is where a group is joined. d2Nal = N[C@H](Cc1ccc2ccccc2c1)C(=O)O; Octanoyl = CCCCCCCC(=O)*
Key:
SOD1^G93A mice [1] = experiment: Repeated subcutaneous GHRP-6 or anamorelin from the age of 10 weeks: body weight, food intake, survival (Example 9); format: in vivo, mouse; conditions: mean ± SE; for Survival period: 1 mg/kg subcutaneously twice a day from age 10 weeks until death; for Amount of change in body weight / Food intake: 1 mg/kg subcutaneously twice a day from age 10 weeks, after 5-weeks of administration
Protocol: In the experiment, 10-week-old SOD1^G93A mice were used, which were divided into 3 groups: a vehicle group, a GHRP-6 group, and an anamorelin group. GHRP-6 (1 mg/kg), anamorelin (1 mg/kg), or a vehicle (5% mannitol solution) was subcutaneously administered thereto twice a day from the age of 10 weeks until death. Their body weight and feed weight were measured before the start of administration and after 5-weeks of administration to calculate the amount of change in body weight and food intake. The survival period of each individual was also analyzed.

[2] = test system: rat adrenal pheochromocytoma-derived PC-12 cells; conditions: cited from earlier work
SOD1^G93A mice [3] = experiment: Continuous subcutaneous human ghrelin under restricted feeding: body weight, skeletal muscle, motor neurons, muscle strength (Example 6); format: in vivo, mouse; conditions: 50 μg/day continuous subcutaneous
Excerpt: In this Example, SOD1^G93A mice were raised under restricted feeding by which the daily food intake of the SOD1^G93A mice under voluntary intake conditions was set to approximately 90%. […] The administered ghrelin was examined for its effects on body weight, skeletal muscle mass, muscle strength, the number of motor neurons, and mRNA expression of Atrogin-1 and Muscle RING-finger protein-1 (MuRF1), which are both involved in skeletal muscle wasting.
(§1) In the experiment, 10-week-old SOD1^G93A and WT mice were used. The WT mice were divided into 2 group, one of which was raised under voluntary intake conditions (WT-control group) and the other of which was given 2.8 to 2.9 g/day which corresponded to approximately 90% of the daily food intake under voluntary intake conditions of the SOD1^G93A mice (WT-restricted feeding group).
(§2) Human ghrelin (50 μg/day, approximately 2 mg/kg/day) was dissolved in a vehicle (saline solution) to prepare a dosing solution. An osmotic pump (ALZET® MINI-OSMOTIC PUMP MODEL 1004, DURECT Corporation) filled with the dosing solution or a saline solution was subcutaneously implanted into the back of each mouse for continuous subcutaneous administration. The administration was started from the age of 10 weeks, and the osmotic pump was replaced with a fresh one 4 weeks later.
Their body weights were measured at the start day of administration and after 6 weeks to calculate the amount of change in body weight.
The forelimb muscle strength was measured using a rat/mouse simple sthenometer; 200 g scale (O'HARA & CO., LTD.) 7 weeks after the start of administration.
The lower-body skeletal muscle masses of the mice were measured using X-ray CT (Latheta LCT-200, Hitachi Aloka Medical, Ltd.) before the start of administration (at the age of 10 weeks) and after 7 weeks to determine the amount of change in skeletal muscle mass.
Then, the mice were anatomized, and the T9 regions of their spinal cords were extracted. Nissl-stained sections were prepared, and the number of motor neurons was histologically identified. Three non-adjacent sections were used per individual to measure the number of motor neurons present in the anterior horn. The measurement value of each group was calculated as a relative value when the average number of motor neurons in the WT-control group was defined as 100%.

Atrogin-1 mRNA = Atrogin-1 mRNA expression in gastrocnemial muscle by quantitative PCR under restricted feeding (Example 6); format: in vivo, mouse; conditions: relative to WT-control group = 100%, 7 weeks after start
Protocol: as §1, §2
(§3) The gastrocnemial muscles were isolated, and after mRNA extraction, the Atrogin-1 and MuRF1 mRNA expression levels were measured by quantitative PCR. The measurement value of each group was calculated as a relative value when the average mRNA expression level in the WT-control group was defined as 100%.

SOD1^G93A mice [4] = experiment: Continuous subcutaneous human ghrelin from the age of 10 weeks: body weight, food intake, skeletal muscle mass, cholesterol, muscle strength, survival (Example 3); format: in vivo, mouse
Protocol: In some Examples, the WT mice were also used.
as §2, with “In the experiment, 10-week-old SOD1^G93A mice were used, which were divided into 2 groups: a vehicle group and a human ghrelin group. Human” for “Human”, “weeks” for “weeks,”, “and continued to the live individuals with” for “and”, “pump” for “pump was”, “one every” for “one”, “weeks.” for “weeks later.”
Their body weight and feed weight was measured before the start of administration and after 8-weeks of administration to calculate the amount of change in body weight and the food intake. After 8-weeks of administration, the lower-body skeletal muscle masses of the mice were measured using X-ray CT (Latheta LCT-200, Hitachi Aloka Medical, Ltd.). The plasma total cholesterol concentrations were measured with Cholesterol E—Test Wako (Wako Pure Chemical Industries, Ltd.) using plasma separated from blood collected from the tail vein after 8-weeks of administration. The forelimb muscle strengths were measured using a rat/mouse simple sthenometer; 200 g scale (O'HARA & CO., LTD.) on the 16th week of age. The survival period of each individual was also analyzed.

SOD1^G93A mice [5] = experiment: Motor neuron protective effect of continuous subcutaneous human ghrelin, Nissl-stained T9 spinal cord sections (Example 4); format: in vivo, mouse; conditions: relative to WT control group = 100%; 50 μg/day continuous subcutaneous, 7 weeks after start, T9 anterior horn; mean ± SE
Protocol: In the experiment, 10-week-old SOD1^G93A and WT mice were used. […] Vehicle-administered WT mice were used as a control group. Human ghrelin (50 μg/day, approximately 2 mg/kg/day) was dissolved in a vehicle (saline solution) to prepare a dosing solution. An osmotic pump (ALZET® MINI-OSMOTIC PUMP MODEL 1004, DURECT Corporation) filled with the dosing solution or a saline solution was subcutaneously implanted into the back of each mouse for continuous subcutaneous administration. The administration was started from the age of 10 weeks and continued after replacement of the osmotic pump with a fresh one 4 weeks later. Seven weeks after the start of administration, the mice were anatomized, and the T9 regions of their spinal cords were extracted. Nissl-stained sections were prepared, and the number of motor neurons was histologically identified. Three non-adjacent sections were used per individual to measure the number of motor neurons present in the anterior horn. The measurement value of each group was calculated as a relative value when the average number of motor neurons in the control group was defined as 100%.

MuRF1 mRNA = MuRF1 mRNA expression in gastrocnemial muscle by quantitative PCR under restricted feeding (Example 6); format: in vivo, mouse; conditions: relative to WT-control group = 100%, 7 weeks after start
Protocol: as §1, §2, §3

SOD1^G93A mice [6] = experiment: Survival period with continuous subcutaneous human ghrelin from the age of 16 weeks (Example 8); format: in vivo, mouse; conditions: 50 μg/day continuous subcutaneous from age 16 weeks
Protocol: as §2, with “In the experiment, 16-week-old SOD1^G93A mice were used, which were divided into 2 groups: a vehicle group and a human ghrelin group. Human” for “Human”, “16 weeks” for “10 weeks,”, “and continued to the live individuals with” for “and”, “pump” for “pump was”, “one every” for “one”, “weeks. The survival period of each individual was analyzed.” for “weeks later.”

SOD1^G93A mice [7] = experiment: Repeated subcutaneous human ghrelin from the age of 10 weeks: body weight, food intake, muscle strength, survival (Example 5); format: in vivo, mouse
Protocol: In the experiment, 10-week-old SOD1^G93A mice were used, which were divided into 2 groups: a vehicle group and a human ghrelin group. Human ghrelin (1 mg/kg) or a vehicle (5% mannitol solution) was subcutaneously administered thereto twice a day from the age of 10 weeks until death. Their body weights and feed weights were measured before the start of administration and after 8-weeks of administration to calculate the amount of change in body weights and the food intakes. The forelimb muscle strengths were measured using a rat/mouse simple sthenometer; 200 g scale (O'HARA & CO., LTD.) before the start of administration and after 8-weeks of administration. The survival period of each individual was also analyzed.

[8] = 50 μg/day continuous subcutaneous from age 10 weeks, after 8-weeks of administration, mean ± SE
[9] = 1 mg/kg subcutaneously twice a day from age 10 weeks, after 8-weeks of administration, mean ± SE

CN(C)N(C)C(=O)[C@@]1(Cc2ccccc2)CCCN(C(=O)[C@@H](Cc2c[nH]c3ccccc23)NC(=O)C(C)(C)N)C1 [Anamorelin, 2-Amino-N-{(1R)-2-[3-benzyl-3-(N,N′,N′-trimethylhydrazinocarbonyl)piperidin-1-yl]-1-((1H-indol-3-yl)-2-oxoethyl)-2-methylpropionamide}]
Survival period (SOD1^G93A mice [1]): 136 ± 2 (31) day | Amount of change in body weight (SOD1^G93A mice [1]): 0.9 ± 0.2 (31) g | Food intake (SOD1^G93A mice [1]): 139.5 ± 2.5 (31) g

C[C@H](NC(=O)[C@@H](Cc1c[nH]c2ccccc12)NC(=O)[C@@H](N)Cc1c[nH]cn1)C(=O)N[C@@H](Cc1c[nH]c2ccccc12)C(=O)N[C@H](Cc1ccccc1)C(=O)N[C@@H](CCCCN)C(N)=O [GHRP-6, L-Histidyl-D-tryptophyl-L-alanyl-L-tryptophyl-D-phenylalanyl-L-lysinamide] (H-H[dW]AW[dF]K-NH2)
Survival period (SOD1^G93A mice [1]): 138 ± 2 (30) day | Amount of change in body weight (SOD1^G93A mice [1]): 1.9 ± 0.2 (30) g | Food intake (SOD1^G93A mice [1]): 142.7 ± 2.1 (30) g

C[C@H](NC(=O)[C@@H](Cc1ccc2ccccc2c1)NC(=O)[C@@H](C)N)C(=O)N[C@@H](Cc1c[nH]c2ccccc12)C(=O)N[C@H](Cc1ccccc1)C(=O)N[C@@H](CCCCN)C(N)=O [Pralmorelin, D-Alanyl-D-(2-naphthyl)alanyl-L-alanyl-L-tryptophyl-D-phenylalanyl-L-lysinamide] (H-[dA][d2Nal]AW[dF]K-NH2)
Increase of the proportion of PC-12 cells having dendrites and axons 1.5 times larger than the size of the cells, compared with a control group [2]: approximately 1.2 times

Human ghrelin: peptide of 28 amino acids (SEQ ID NO: 1), hydroxy group of the 3rd residue (serine) acylated with n-octanoyl group; endogenous GHS-R ligand (GSS(Octanoyl)FLSPEHQRVQQRKESKKPPAKLQPR; listed as Homo sapiens)
The number of motor neurons (SOD1^G93A mice [3]; relative to WT-control group = 100%, restricted feeding, T9 anterior horn): 66 ± 5 % | Amount of change in body weight (SOD1^G93A mice [3]; restricted feeding 2.8 to 2.9 g/day, 6 weeks after start): −1.4 ± 0.7**^,## g | Forelimb muscle strength (SOD1^G93A mice [3]; restricted feeding, 7 weeks after start): 0.77 ± 0.06 N | Amount of change in lower-body skeletal muscle (SOD1^G93A mice [3]; restricted feeding, 7 weeks after start, X-ray CT): −0.9 ± 0.2**^,# g | Atrogin 1 mRNA expression level (Atrogin-1 mRNA): 205 ± 34 % | Survival period longer on average than the survival days of the vehicle group (SOD1^G93A mice [4]; 50 μg/day continuous subcutaneous from age 10 weeks): 13.8% | Amount of change in body weight (SOD1^G93A mice [4]; [8]): 2.6 ± 0.4 (15) g | Food intake (SOD1^G93A mice [4]; [8]): 188.2 ± 3.6 (15) g | Survival period (SOD1^G93A mice [4]; 50 μg/day continuous subcutaneous from age 10 weeks, mean ± SE): 173 ± 4 (15) day | Forelimb muscle strength (SOD1^G93A mice [4]; 50 μg/day continuous subcutaneous, after 6-weeks of administration (16th week of age), mean ± SE): 0.96 ± 0.05 (15) N | Lower-body skeletal muscle mass (SOD1^G93A mice [4]; 50 μg/day continuous subcutaneous, after 8-weeks of administration, X-ray CT, mean ± SE): 5.7 ± 0.3 (15) g | Plasma total cholesterol concentration (SOD1^G93A mice [4]; 50 μg/day continuous subcutaneous, after 8-weeks of administration, mean ± SE): 85.8 ± 4.0 (15) mg/dL | The number of motor neurons (SOD1^G93A mice [5]): 84 ± 7 (7)*^,## % | MuRF1 mRNA expression level (MuRF1 mRNA): 207 ± 36 % | Survival period longer on average than the survival days of the vehicle group (SOD1^G93A mice [6]): 17.6% | Survival period (SOD1^G93A mice [6]; mean ± SE): 180 ± 11 (9) day | Survival period longer on average than the survival days of the vehicle group (SOD1^G93A mice [7]; 1 mg/kg subcutaneously twice a day from age 10 weeks): 21.8% | Survival period (SOD1^G93A mice [7]; 1 mg/kg subcutaneously twice a day from age 10 weeks until death, mean ± SE): 179 ± 8 (13) day | Amount of change in body weight (SOD1^G93A mice [7]; [9]): 2.1 ± 0.4 (13) g | Food intake (SOD1^G93A mice [7]; [9]): 176.2 ± 3.5 (13) g | Change in forelimb muscle strength (SOD1^G93A mice [7]; 1 mg/kg subcutaneously twice a day, from age 10 weeks to after 8-weeks of administration, mean ± SE): −0.08 ± 0.07 (13) N
